Earlier results, collected in US20250375409A1, “Treatment of REM Behavior Disorder” (Vanda Pharmaceuticals Inc., priority 2024, published 2025).

Assays:
[1] = following an oral dose; large first pass effect

mean systemic availability [1]: less than 2%
Structure (SMILES): CCC(=O)NCC[C@@H]1CCc2ccc3c(c21)CCO3 [ramelteon]
RBD outcome in open label trial (Esaki et al., 12 patients with idiopathic RBD, 8 mg given 30 minutes before bedtime): trend towards improvement
RBD symptoms, including the RBD severity scale (RBDSS) (Nomura et al. 2013, 8 mg, two patients with RBD in association with Parkinsonian syndromes): improvement of their RBD symptoms
RBD outcome in patients with Parkinson's disease (patients with Parkinson's disease, with or without RBD, after treatment): statistically significant RBD improvement
